Assay results taken from article PMC10060354, “Discovery of a small molecule ligand of FRS2 that inhibits invasion and tumor growth” (Cellular Oncology, 2022).
“And” between values parts separate entries of the source, which are not always exact repeats. Equal entries are not always repeated. Where two headings read alike, the source gives them in different places.

What was measured:
GB1-FRS2-PTB = biological target: T1, GB1-FRS2-PTB (Homo sapiens, UniProt Q8WU20); experiment: Microscale thermophoresis (MST); format: binding; settings: for Kd: GB1-FRS2_PTB; for binding by MST trace analysis (result in words): signal:noise ratio > 5 counts as binding
T1 construct: FRS2-PTB 11-140aa; 6xHis (N); made in house; host or cells: E. coli BL21 (DE3)
T1 sequence (Q8WU20 11-140): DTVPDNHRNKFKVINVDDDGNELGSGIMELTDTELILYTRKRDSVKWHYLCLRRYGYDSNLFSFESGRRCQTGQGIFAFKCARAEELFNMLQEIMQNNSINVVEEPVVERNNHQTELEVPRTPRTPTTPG
Experimental: Protein labeling for MST was performed with the 2nd Generation BLUE-NHS dye. GB1-FRS2_PTB- was labelled at 20 μM with 60 μM dye and incubated for 30 min in the dark at room temperature. The labelling was performed in the protein buffer without arginine supplementation. It was rebuffered to protein buffer (100 mM sodium phosphate, 50 mM NaCl, 0.5 mM EDTA, 50 mM arginine, 1 mM TCEP, pH 7.0). The dye was subsequently removed by gravitational flow chromatography and the protein concentration determined by UV-spectroscopy. The assay was established with the FGFR_PEP. […] A total volume of 10 μl of 50 nM labelled protein was added to 10 μl of the peptide dilution series for a final labelled protein concentration of 25 nM. The samples were incubated for 15 min at RT. […] Temperature was set to 25 °C. Each measurement was repeated twice. The interaction was measured in duplicates for the non-DMSO-supplemented buffer and in triplicates for DMSO-supplemented buffer. […] The samples were incubated for 15 min, and MST assessed as described above. Each measurement was repeated twice. The interaction was measured in two independent duplicates. […] The mixture was then measured for their initial fluorescence once. MST-experiments were performed with MO.Control vers. 1.6 (NanoTemper Technologies, Munich, Germany) and data analyzed with MO.Analysis vers. 2.3 (NanoTemper Technologies, Munich, Germany). Data was plotted with GraphPad Prism vers. 8.3.0 (GraphPad Software, San Diego, USA).

HCT116 [1] = experiment: SIA, collagen I invasion; format: cell-based; settings: Homo sapiens, HCT-116, 100 ng/ml bFGF
Experimental: (§1) 1000—2500 cells/well in 100 μl were seeded in 96 well Corning® Spheroid microplate (CLS4520, Sigma-Aldrich) or in cell-repellent 96 well microplate (650,790, Greiner Bio-one). SIA and analysis was performed as described before. In brief: After spheroid formation (24 – 72 h after seeding), 70 µl medium was removed and replaced with the collagen mixture (2.5 mg/ml Pure Col Collagen I (Advanced Biomatrix)), DMEM 1x (from 10 × stock, Sigma, D2429) and 0.4% Sodium bicarbonate (Sigma, S8761)), resulting in a final collagen concentration of 1.75 mg/ml. Embedded spheroids were stimulated with bFGF (100 ng/ml if not otherwise stated), HGF (30 ng /ml) or EGF (20 ng/ml) and distance of invaded cells quantified 24 – 48 h after embedding. Compounds and BGJ398 were added in Dimethylsulfoxid (DMSO) and corresponding DMSO concentrations were used in control samples.

M059K = experiment: SIA, collagen I invasion; format: cell-based; settings: Homo sapiens, 100 ng/ml bFGF
Experimental: as §1

DAOY siCTL cells = experiment: SIA, bFGF-induced collagen I invasion in control siRNA cells; format: cell-based; settings: Homo sapiens
Experimental: as §1
siFRS2 in DAOY cells: 50,000 cells/well in 2 ml medium were seeded in 6 well plates and incubated at 37 °C, 5% CO2. The following day cells were transfected with 10 nM siRNA (5 nM Silencer Select, 5 nM Stealth RNAi siRNA) using Lipofectamin RNAiMAX Transfection Reagent (13,778,075; Invitrogen) and Opti-MEM® medium (15,392,402; Gibco). After 6 h, the medium was exchanged with fresh complete medium and further processed for the SIA protocol.

DMS114 = experiment: Boyden chamber transwell migration assay; format: cell-based, human; settings: 24 h
Experimental: (§2) Transwells with 5 μm pore size (83.3932.500; Sarstedt) were coated with 50 µl of 0.06 μg/μl Pure Col Collagen I (5005; Advanced BioMatrix) dissolved in 100% EtOH for a final concentration of 10 μg/cm^2. 10,000 – 15,000 cells were resuspended in serum-free medium or serum-free medium containing the appropriate treatment and seeded in the upper chamber of a 24 well plate containing the coated transwell. The lower chamber was filled with either serum-free medium or serum-free medium with bFGF (25 ng/ml). Transwell migration was allowed for 24 h (DMS114) or 48 h (HCT116) at 37 °C, 5% CO2. Inserts were washed twice with PBS and the remaining non-invading cells on the upper surface of the membrane were removed using a cotton swab. The cells were fixed in 4% paraformaldehyde (28908; Thermo Fisher Scientific) in PBS for 5 min at RT. Fixed cells were washed twice with PBS and stained with DAPI for 15 min at RT. Inserts were washed three times in PBS before images of DAPI-stained nuclei were acquired using a widefield Nikon Ti2 microscope at 40 × magnification. Nuclei were counted on the membrane areas using ImageJ software and plotted on Prism 9 software (GraphPad).

HCT116 [2] = experiment: Boyden chamber transwell migration assay; format: cell-based, human; settings: 2.5, 5 or 10 µM, 48 h
Experimental: as §2

AGS flank tumors = experiment: Anti-tumor activity, AGS flank xenograft model; format: in vivo
Experimental: In vivo mouse models were generated and experiment with SKOV3 and AGS models performed by EPO, experimental pharmacology & oncology Berlin-Buch GMBH (Berlin, Germany). AGS model: AGS cells were cultured in F12-K medium (10%FCS, 1%PS) until P11. […]. Tumor diameters were determined by calliper measurements 2 × weekly, body weight (BW) was measured as parameter for tolerability 2 × weekly.

pFRS2Y436 = experiment: IHC of pFRS2Y436 in SKOV3 flank tumor samples; format: in vivo, mice; settings: SKOV3 model; end of treatment
Experimental: IHC of tumor sections was performed by Sophistolab (Muttenz, Switzerland) on a Lecia BondMax instrument using Refine HRP-Kits (Leica DS9800). All buffer-solutions were purchased from Lecia Microsystems Newcastle, Ltd and used according to the manufacturer’s guidelines. Paraffin-slides were de-waxed, pre-treated and incubated as follows: ER-solution 2 for 10 min at 95 °C, ER-solution 2 for 20 min at 100 °C and ER-solution 2 for 30 min at 100 °C. pFRS2; Rabbit anti-Phospho FRS2 (PhosphoY 436, Abcam Limited; ab193363), dilution 1:150; phospho-p44/42 MAPK (Erk1/2Thr202/Tyr204) Rabbit mAb (Cell Signaling Technology #4370), dilution 1:1600. The IHC images were captured digitally using a Nikon Epifluorescence Eclipse Ti2 equipped with a Nikon DS-Ri2 color and a Nikon DS-Qi2 monochrome camera.

[3] = read-out: KD, initial fluorescence change analysis
[4] = AGS model, 200 mg/kg PO once per day

Row | SMILES | Kd (GB1-FRS2-PTB; [3]) | binding by MST trace analysis (result in words) (GB1-FRS2-PTB) | Kd (GB1-FRS2-PTB; fitting with signal-noise ratio < 5 is considered no binding, read-out: KD, MST trace analysis) | EC50 (HCT116 [1]) [µM] | EC50 (M059K) [µM] | IC50 (DAOY siCTL cells) [µM] | concentration at which significant reduction of transwell migration was observed (DMS114) [µM] | basal and bFGF-increased transwell migration (result in words) (HCT116 [2]) | tolerability in AGS tumor-bearing mice (result in words) (AGS flank tumors; 200 mg/kg PO, treatment interrupted for 7 days at day 72) | animals with TV reduced at d67 and plateaued between d70 and 77 (AGS flank tumors; [4]) | average tumor volume (result in words) (AGS flank tumors; [4]) | pFRS2 Y436 in tumor tissues by IHC (result in words) (pFRS2Y436)
1 | COc1ncc(C(C)NC2CC(C)(C)NC(C)(C)C2)cc1Cl (centres unmarked) [Compound 3.3] | 3.1 µM and 4 µM | no binding was detected | – | – | – | – | – | – | – | – | – | –
2 | CC(C)C[C@@H](CO)NCc1cc(O)c2cc(F)ccc2n1 [Compound 3.14] | 19.6 µM and 12.8 µM and 12.8 to 19.6 µM | did show binding | 150 µM and 400 µM | – | – | – | – | – | – | – | – | –
3 | O=[N+]([O-])c1c(Cl)cc(O)c2c1C1C=CCC1C(c1ccc(Cl)cc1)N2 (centres unmarked) [Compound 7] | – | – | – | 0.416 | 3.28 | 3.01 | 10 | abolished | signs of toxicity | four out of the six | did not significantly reduce average TV compared to control | No clear difference in pFRS2 Y436
